Calls of active or inactive are those of the source.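 Rule for the calls: active = compounds whose fitted half-maximal concentration in the cell-protection dose series is at or below a set limit; inactive = the rest.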

This experiment deals with H9c2 cardiomyocytes, 2-deoxyglucose stress, ATP luminescence, 2 h. Description: H9c2 cell survival under 2-deoxyglucose stress – uHTS hits, dose response (AID 588780).
For the molecule `CCOc1cc(/C=C(\C#N)C(=O)Nc2ccc(S(N)(=O)=O)cc2)ccc1OCCN1CCOCC1`, the IC50 (commonly the concentration at which inhibition is half-maximal) was > 79 µM (inactive).

Regarding `CCOC(=O)CSc1nnc(CSc2nc3sc4c(c3c(=O)[nH]2)CCC4)n1C`, the IC50 is > 79 µM (inactive).

For the molecule `CCN1C(=O)/C(=C/c2nc3ccccc3c(=O)[nH]2)c2ccccc21`, the IC50 is > 79 µM (inactive).

On to `COCCNC(=O)COC(=O)c1ccc(OCC(=O)Nc2ccccc2OC)c(OC)c1`, for which the IC50 was 22.9 µM.

As to `C=CCOc1ccc(C=Nc2ccc(OC)cc2)c(O)c1`, the IC50 is 23.8 µM.

Regarding `CCCOc1ccc2[nH]c(C(=O)N/N=C/c3cc(OC)c(OC)c(OC)c3)cc2c1`, the IC50 is 9.02 µM.

Turning to `O=C(Nc1ccccc1)c1nc[nH]c1C(=O)NCCCCCCNC(=O)c1[nH]cnc1C(=O)Nc1ccccc1`, the half-inhibitory concentration (IC50) is 10.5 µM.

Take `COC(=O)c1c(C)[nH]c(O)c1C=Nc1ccc(Oc2ccccc2)cc1`: the IC50 is > 79 µM (inactive).

As for `CCc1nc2ccc(C(=O)Nc3cccc(OCC(=O)N(C)C)c3)cn2c1N(C)Cc1cc2ccccc2s1`, the IC50 was 11.8 µM.

Turning to `O=C(NCCc1ccccc1Cl)c1ccc2nc3ccccc3c(=O)n2c1`, the IC50 was 16.8 µM.

With `O=C(Nc1ccc2c(c1)OCO2)c1cnn2c(C(F)(F)F)cc(-c3ccco3)nc12`, the IC50 is 7.33 µM.

Turning to `O=C(CCS(=O)(=O)c1ccccc1)Nc1nc(-c2ccccn2)cs1`, the IC50 is 31.3 µM (inactive).

On to `COCCCN(Cc1ccco1)C(=O)Cn1ncc2c([nH]c3ccccc32)c1=O`, for which the half-maximal inhibitory concentration (IC50) was 13.8 µM.

Take `O=C(Cn1[nH]c(=O)c2ccccc2c1=O)NNC(=O)c1ccccc1`: the IC50 was 9.4 µM.

Take `CCN(CC)CCn1c(NC(=O)c2ccc(Cl)cc2)nc2ccccc21`: the IC50 was > 79 µM (inactive).

With `O=c1[nH]c(NCc2ccccc2)nc2c1CCCC2`, the IC50 was > 79 µM (inactive).

For `C=CC[C@@H](CC(=O)NCCO)C(=O)NC[C@H](OC(=O)[C@@H](CC=C)Cc1ccc(F)cc1)c1ccccc1`, the IC50 was > 79 µM (inactive).

For the molecule `COC(=O)c1[nH]c2ccccc2c1NC(=O)CNC1CCCCC1`, the IC50 was > 79 µM (inactive).

As to `CCOc1ccc(NC(=O)CN(C)C(=O)Cc2n[nH]c(=O)c3ccccc23)cc1OCC`, the IC50 is > 79 µM (inactive).

In the case of `CCOC(=O)c1ccc(-c2ccc(C3Nc4ccccc4C(=O)N3O)o2)cc1` (stereo unspecified), the IC50 is 20.4 µM.

On to `COc1ccc(NC(=O)CCCc2nc3ccccc3c(=O)[nH]2)cc1Cl`, for which the IC50 was > 79 µM (inactive).

For `COc1ccc2cc3cc(C(=O)Nc4cc(OC)c(OC)c(OC)c4)oc3nc2c1`, the IC50 was 27.5 µM.

As to `Cc1cccc(NC(=O)c2nc[nH]c2C(=O)NCCCCNC(=O)c2[nH]cnc2C(=O)Nc2cccc(C)c2)c1`, the IC50 is > 79 µM (inactive).

In the case of `CCOC(=O)C1=C(COC(=O)c2cc(OC)c(OC)c(OC)c2)NC(=O)NC1C` (stereo unspecified), the IC50 was 50 µM (inactive).

Take `Cc1ccc(N2CC(C(=O)NCc3n[nH]c(=O)c4ccccc34)CC2=O)cc1C` (stereo unspecified): the IC50 is > 79 µM (inactive).

In the case of `O=C(CN1C(=O)C2CC=CCC2C1=O)Nc1nc(-c2ccc(F)cc2)cs1` (stereo unspecified), the half-maximal inhibitory concentration (IC50) is 10.8 µM.

On to `CCOC(=O)N1CCC(n2c(SCC(=O)N3CCC(C)CC3)nc3ccccc3c2=O)CC1`, for which the IC50 was > 79 µM (inactive).

For the molecule `COc1ccc(-c2cc(C(=O)N(C)Cc3ccccc3F)c3ccccc3n2)cc1OC`, the IC50 was > 79 µM (inactive).

Consider `COc1cc(OC)cc(C(=O)NNC(=O)CCc2nc3ccccc3c(=O)[nH]2)c1`, for which the IC50 was > 79 µM (inactive).

With `COc1ccccc1OCC(=O)Nc1sc2c(c1C(=O)NCC1CCCO1)CCC2` (stereo unspecified), the IC50 was > 79 µM (inactive).

Take `CC(=O)Nc1cc(-c2ccccc2)cn2c(-c3cccc(C(C)=O)c3)cnc12`: the IC50 was 17.8 µM.

As to `COc1ccc(/C=N/NC(=O)c2cccnc2)cc1CSc1nc2ccccc2s1`, the IC50 is 12.2 µM.

In the case of `CCCn1nc(C(=O)Nc2nc(-c3ccccn3)cs2)c2ccccc2c1=O`, the IC50 is > 79 µM (inactive).

On to `CCOc1cccc(-c2nn3c(-c4ccco4)nnc3s2)c1`, for which the IC50 was 22.6 µM.

On to `CN(C)S(=O)(=O)c1cccc(NC(=O)COC(=O)c2ccc([N+](=O)[O-])o2)c1`, for which the IC50 was > 79 µM (inactive).

Consider `O=C(Cn1[nH]c(=O)c2ccccc2c1=O)OCC(=O)N1CCc2ccccc2C1`, for which the IC50 is > 79 µM (inactive).

Consider `CCOC(=O)Cc1n[nH]c(=O)c2ccccc12`, for which the IC50 was > 79 µM (inactive).

As to `O=C(Cn1nc(C(=O)O)c2ccccc2c1=O)c1c[nH]c2ccccc12`, the IC50 is 36.3 µM (inactive).

Take `CC(C)CC(=O)Nc1ccc(C(=O)COC(=O)Cc2n[nH]c(=O)c3ccccc23)cc1`: the IC50 was > 79 µM (inactive).

`O=C1Nc2cnc(Cl)nc2Nc2ccccc21`: the IC50 is > 79 µM (inactive).

Consider `CC12C=CC(=O)CC1CCC1C2CCC2(C)C(O)C(O)CC12` (stereo unspecified), for which the IC50 was 12.3 µM.

`O=C(CC(C(=O)c1ccccc1)c1ccccc1)c1ccccc1` (stereo unspecified): the IC50 was 12.6 µM.

In the case of `O=C(COC(=O)Cn1[nH]c(=O)c2ccccc2c1=O)Nc1ncc(Cl)cc1Cl`, the IC50 is > 79 µM (inactive).

Regarding `COc1ccc(-n2c(/C=C/c3ccc(O)c(OC)c3)nc3ccccc3c2=O)cc1`, the IC50 is > 79 µM (inactive).

For the molecule `CCc1nc2ccc(C(=O)Nc3cc(-c4ccccc4)ccc3OC)cn2c1N(C)Cc1nccs1`, the IC50 was 9.62 µM.

With `CCOc1ccc(CC(=O)Nc2c(C(N)=O)oc3ccc(Br)cc23)cc1OCC`, the IC50 is > 79 µM (inactive).

For `COc1ccc(Nc2nnc(-c3ccc(O)cc3)c3ccccc23)cc1C(N)=O`, the IC50 was > 79 µM (inactive).

As for `Cc1ccc(NC(=O)c2nc[nH]c2C(=O)NCCCNC(=O)c2[nH]cnc2C(=O)Nc2ccc(C)cc2)cc1`, the IC50 is 21.5 µM.

As to `COc1cc(-c2cc(C(=O)Nc3cccc(C(C)=O)c3)c3ccccc3n2)cc(OC)c1OC`, the IC50 was > 79 µM (inactive).

`COc1ccccc1NC(=O)COc1ccc(/C=N/NC(=O)c2cccnc2)cc1`: the IC50 is 14.8 µM.

Consider `Cc1ccc2c(c1)CCCN2C(=O)CCc1nc2ccccc2c(=O)[nH]1`, for which the IC50 was 9.06 µM.

`Cn1c(C(=O)NCc2cccs2)cc2c(=O)n(C)c3ccccc3c21`: the IC50 was > 79 µM (inactive).

Regarding `COc1cc(NC(=O)c2cccc3c(-c4cnn(C)c4)coc23)cc(OC)c1OC`, the IC50 is > 79 µM (inactive).

For the molecule `O=C(Cn1[nH]c(=O)c2ccccc2c1=O)NC1CCN(Cc2ccccc2)CC1`, the IC50 is > 79 µM (inactive).

For the molecule `O=C(Nc1nnc(-c2ccco2)o1)c1ccc2ccccc2c1`, the IC50 is > 79 µM (inactive).

Regarding `COc1ccc(-c2cc(NC=O)c3ncc(-c4ccccc4)n3c2)cc1OC`, the IC50 was > 79 µM (inactive).

Turning to `O=C(CSc1nc2ccccc2c(=O)[nH]1)c1ccccc1`, the IC50 was > 79 µM (inactive).

For `Cc1[nH]c2ccccc2c1/C=N/NC(=O)c1cc(-c2cccs2)[nH]n1`, the IC50 was > 79 µM (inactive).

For the molecule `Cc1cccc(-n2c(SCc3cc(=O)n4ccsc4n3)nc3ccccc3c2=O)c1`, the IC50 is 14 µM.

With `COc1ccc(C(C(=O)NCc2ccccc2)N(Cc2cccs2)C(=O)c2cnccn2)cc1` (stereo unspecified), the IC50 was 16.1 µM.

Turning to `O=C(CSc1nnc(-c2ccccc2)n1Cc1ccccc1)NNC(=O)c1ccccc1O`, the IC50 was > 79 µM (inactive).

Consider `O=C(c1ccc(-c2nc3ccccc3s2)o1)N1CCN(c2ccccc2O)CC1`, for which the IC50 was 12.3 µM.

On to `CCN(CC(=O)Nc1c(F)cccc1F)C(=O)Cc1n[nH]c(=O)c2ccccc12`, for which the IC50 is > 79 µM (inactive).

For the molecule `COc1ccccc1NS(=O)(=O)c1ccc2oc(SCC(=O)N3CCNC3=O)nc2c1`, the IC50 is 36.5 µM (inactive).

On to `COc1ccc(OCC(=O)N/N=C/c2cccc3cccnc23)cc1`, for which the IC50 is 38.6 µM (inactive).

Regarding `COc1ccc(-c2cc3nc(C)cc(N4CCN(C(=O)c5ccoc5)CC4)n3n2)cc1`, the IC50 was 51.7 µM (inactive).

`Cc1csc(SCc2nc3sc4c(c3c(=O)[nH]2)CCC4)n1`: the IC50 was > 79 µM (inactive).

`COc1cccc(-c2cnc3c(NC=O)cc(-c4cc(OC)c(OC)c(OC)c4)cn23)c1`: the IC50 was > 79 µM (inactive).

On to `O=C(CCc1nc2ccccc2c(=O)[nH]1)Nc1ccc(F)cc1`, for which the IC50 was 27.6 µM.

Take `O=C(COc1cccc2c1CCNC2=O)Nc1ccc(Cl)cc1`: the IC50 is > 79 µM (inactive).

For the molecule `Cc1sc2nc(SCC(=O)NCc3ccco3)[nH]c(=O)c2c1C`, the IC50 is > 79 µM (inactive).

For the molecule `CNS(=O)(=O)c1cc2c3c(cccc3c1)C(=O)NC2=O`, the IC50 was > 79 µM (inactive).

Turning to `COC(=O)c1ccc(Cn2c(C)c(C(=O)NCc3cccs3)sc2=O)o1`, the IC50 is > 79 µM (inactive).

On to `CC(=O)c1ccc(C(=O)Nc2nnc(-c3ccc(Cl)cc3)o2)cc1`, for which the concentration for half-maximal inhibition (IC50) is 15.7 µM.

As to `CC(=O)Nc1ccc(C(=O)N/N=C/c2ccccc2OC(=O)c2ccc(Cl)cc2)cc1`, the IC50 was 11.5 µM.

As for `CCOC(=O)c1cc(-c2ccc(/C=N\n3cnnc3)o2)ccc1Cl`, the IC50 was > 79 µM (inactive).

For `COc1ccc(COc2cc(-c3cccc(OC)c3)nc3ccc(NC(=O)c4ccc(OC)cc4)cc23)cc1`, the IC50 is 5.3 µM.

With `NC(=O)c1ccsc1NC(=O)COC(=O)Cc1n[nH]c(=O)c2ccccc12`, the IC50 is > 79 µM (inactive).

Take `O=C(N/N=C/c1ccccn1)c1cc(-c2cccc3ccccc23)n[nH]1`: the IC50 was > 79 µM (inactive).

Regarding `NC(=O)c1ccccc1N=Cc1ccccn1`, the IC50 was > 79 µM (inactive).

Consider `CC(=O)Oc1ccc(C(=O)OCC(=O)c2c(N)n(C)c(=O)n(C)c2=O)cc1OC(C)=O`, for which the IC50 was 31.8 µM (inactive).

Turning to `CC(=O)c1ccccc1OCCCN1CCCCC1`, the IC50 was > 79 µM (inactive).

Regarding `NC(=O)c1nsc(C(=O)N(c2ccccc2F)C(C(=O)NCc2ccc(F)cc2)c2ccc(O)cc2)c1N` (stereo unspecified), the IC50 was > 79 µM (inactive).

Turning to `CN(C)S(=O)(=O)c1ccc2[nH]cc(/C=C/c3nc4ccccc4c(=O)n3-c3ccccc3)c2c1`, the IC50 was > 79 µM (inactive).

As for `O=C(N/N=C/c1ccccn1)c1cccc([N+](=O)[O-])c1`, the IC50 was > 79 µM (inactive).

With `CCCCCn1nc(C(=O)OCC(=O)c2c(N)n(C)c(=O)n(C)c2=O)c2ccccc2c1=O`, the IC50 was 20.1 µM.

The values are drawn from PubChem BioAssay AID588780 (Sanford-Burnham Center for Chemical Genomics, 2011).
